Experimental data: patent US9394300B2, “Quinolone derivatives” (Cadila Healthcare Limited, priority 2012, dated 2016)

System: C57 Mice
Assay: Estimating circulating EPO release in mice (plasma EPO by mouse EPO ELISA)
Format: in vivo
Settings: oral gavage 10 mg/kg, plasma six hours after administration, EPO in control = 62 ng/mL
Procedure: (1) Protocol for Estimating Circulating EPO Release in Mice
C57 Mice were administered various doses (10 mg/kg, 30 mg/kg, 50 mg/kg, 100 mg/kg) of compounds of the present invention by oral gavage at 10 ml/kg. Six hours after compound administration, mice were bled by retro-orbital puncture, under light ether anesthesia in microfuge tubes containing 2% EDTA (10 μl/100 μl of blood). Plasma was separated and analyzed for EPO content by mouse EPO ELISA.

Q: `O=C(O)CNC(=O)c1c(O)c2ccccc2n(OCc2c(F)cccc2F)c1=O` [Example 16, 2-(1-((2,6-difluorobenzyl)oxy)-4-hydroxy-2-oxo-1,2-dihydroquinoline-3-carboxamido)acetic acid] was tested. Which “EPO (ng/mL) oral gavage 10 mg/kg” value did it give?
A: 100 ng/mL

Same assay, conditions: oral gavage 50 mg/kg, plasma six hours after administration, EPO in control = 62 ng/mL

Q: With `O=C(O)CNC(=O)c1c(O)c2ccccc2n(OCc2c(F)cccc2F)c1=O` [Example 16, 2-(1-((2,6-difluorobenzyl)oxy)-4-hydroxy-2-oxo-1,2-dihydroquinoline-3-carboxamido)acetic acid] as the compound, how does the “EPO (ng/mL) oral gavage 50 mg/kg” value read?
A: 8043 ng/mL

Q: Which “EPO (ng/mL) oral gavage 50 mg/kg” value does the source give for `O=C(O)CNC(=O)c1c(O)c2ccc(Cl)cc2n(OCc2c(F)cccc2F)c1=O` [Example 20, 2-(7-chloro-1-((2,6-difluorobenzyl)oxy)-4-hydroxy-2-oxo-1,2-dihydroquinoline-3-carboxamido)acetic acid] here?
A: 3797 ng/mL

Q: With `O=C(O)CNC(=O)c1c(O)c2ccccc2n(OCc2ccccc2F)c1=O` [Example 62, 2-(1-((2-fluorobenzyl)oxy)-4-hydroxy-2-oxo-1,2-dihydroquinoline-3-carboxamido)acetic acid] as the compound, how does the “EPO (ng/mL) oral gavage 50 mg/kg” value read?
A: 398 ng/mL

Q: How did the “EPO (ng/mL) oral gavage 50 mg/kg” value turn out when `CCOn1c(=O)c(C(=O)NCC(=O)O)c(O)c2ccccc21` [Example 63, 2-(1-ethoxy-4-hydroxy-2-oxo-1,2-dihydroquinoline-3-carboxamido)acetic acid] was run?
A: 539 ng/mL

Q: `COc1ccc(COn2c(=O)c(C(=O)NCC(=O)O)c(O)c3ccccc32)cc1` [Example 67, 2-(4-hydroxy-1-((4-methoxybenzyl)oxy)-2-oxo-1,2-dihydroquinoline-3-carboxamido)acetic acid] was tested. Which “EPO (ng/mL) oral gavage 50 mg/kg” value did it give?
A: 477 ng/mL

Same assay, conditions: oral gavage 100 mg/kg, plasma six hours after administration, EPO in control = 62 ng/mL

Q: With `O=C(O)CNC(=O)c1c(O)c2ccccc2n(OCc2ccccc2)c1=O` [Example 1, 2-(1-(benzyloxy)-4-hydroxy-2-oxo-1,2-dihydroquinoline-3-carboxamido)acetic acid] as the compound, how does the “EPO (ng/mL) oral gavage 100 mg/kg” value read?
A: 7118 ng/mL

Q: `COn1c(=O)c(C(=O)NCC(=O)O)c(O)c2ccccc21` [Example 11, 2-(4-hydroxy-1-methoxy-2-oxo-1,2-dihydroquinoline-3-carboxamido)acetic acid] was tested. Which “EPO (ng/mL) oral gavage 100 mg/kg” value did it give?
A: 1593 ng/mL

Q: Which “EPO (ng/mL) oral gavage 100 mg/kg” value does the source give for `O=C(O)CNC(=O)c1c(O)c2ccccc2n(OCc2ccc(C(F)(F)F)cc2)c1=O` [Example 12, 2-(4-hydroxy-2-oxo-1-((4-(trifluoromethyl)benzyl)oxy)-1,2-dihydroquinoline-3-carboxamido)acetic acid] here?
A: 7056 ng/mL

System: C57 Mice
Assay: Estimating hemoglobin levels in mice
Format: in vivo
Settings: oral once daily for 7 consecutive days at 20 mg/kg, whole blood on 8th day
Procedure: (2) Protocol for Estimating Hemoglobin Levels in Mice
C57 mice were administered compounds of the present invention at 10 ml/kg by oral route daily once in the morning for 7 consecutive days at 20 mg/kg. On 8th day animals were bled by retro-orbital puncture under light ether anesthesia in microfuge tubes containing 2% EDTA (10 μl/100 μl of blood) for whole blood. Hemoglobin, Reticulocyte count and RBC count were measured using standard procedures.

Q: With `C=CCOn1c(=O)c(C(=O)NCC(=O)O)c(O)c2cc(Oc3ccccc3)ccc21` [Example 8, 2-(1-(allyloxy)-4-hydroxy-2-oxo-6-phenoxy-1,2-dihydroquinoline-3-carboxamido)acetic acid] as the compound, how does the “Hemoglobin (g/dL) 20 mg/kg compound” value read?
A: 15.8 g/dL

Q: How did the “Hemoglobin (g/dL) 20 mg/kg compound” value turn out when `C=CCOn1c(=O)c(C(=O)NCC(=O)O)c(O)c2sccc21` [Example 10, 2-(4-(allyloxy)-7-hydroxy-5-oxo-4,5-dihydrothieno[3,2-b]pyridine-6-carboxamido)acetic acid] was run?
A: 13.8 g/dL

Q: For `CC(C)On1c(=O)c(C(=O)NCC(=O)O)c(O)c2ccccc21` [Example 25, 2-(4-hydroxy-1-isopropoxy-2-oxo-1,2-dihydroquinoline-3-carboxamido)acetic acid], which “Hemoglobin (g/dL) 20 mg/kg compound” value is on record?
A: 14.9 g/dL

Q: For `CC(C)COn1c(=O)c(C(=O)NCC(=O)O)c(O)c2ccccc21` [Example 28, 2-(4-hydroxy-1-isobutoxy-2-oxo-1,2-dihydroquinoline-3-carboxamido)acetic acid], which “Hemoglobin (g/dL) 20 mg/kg compound” value is on record?
A: 16.9 g/dL

Q: With `O=C(O)CNC(=O)c1c(O)c2nccnc2n(OCc2c(F)cccc2F)c1=O` [Example 36, 2-(5-((2,6-difluorobenzyl)oxy)-8-hydroxy-6-oxo-5,6-dihydropyrido[2,3-b]pyrazine-7-carboxamido)acetic acid] as the compound, how does the “Hemoglobin (g/dL) 20 mg/kg compound” value read?
A: 14.2 g/dL

Q: How did the “Hemoglobin (g/dL) 20 mg/kg compound” value turn out when `CCC(CC)On1c(=O)c(C(=O)NCC(=O)O)c(O)c2ccccc21` [Example 38, 2-(4-hydroxy-2-oxo-1-(pentan-3-yloxy)-1,2-dihydroquinoline-3-carboxamido)acetic acid] was run?
A: 15.8 g/dL

Q: How did the “Hemoglobin (g/dL) 20 mg/kg compound” value turn out when `CCCOn1c(=O)c(C(=O)NCC(=O)O)c(O)c2scc(C)c21` [Example 40, 2-(7-hydroxy-3-methyl-5-oxo-4-propoxy-4,5-dihydrothieno[3,2-b]pyridine-6-carboxamido)acetic acid] was run?
A: 16.1 g/dL

Q: Which “Hemoglobin (g/dL) 20 mg/kg compound” value does the source give for `Cc1csc2c(O)c(C(=O)NCC(=O)O)c(=O)n(OCc3c(F)cccc3F)c12` [Example 42, 2-(4-((2,6-difluorobenzyl)oxy)-7-hydroxy-3-methyl-5-oxo-4,5-dihydrothieno[3,2-b]pyridine-6-carboxamido)acetic acid] here?
A: 16.1 g/dL

Q: With `O=C(O)CNC(=O)c1c(O)c2ccccc2n(OCC2CCCCC2)c1=O` [Example 44, 2-(1-(cyclohexylmethoxy)-4-hydroxy-2-oxo-1,2-dihydroquinoline-3-carboxamido)acetic acid] as the compound, how does the “Hemoglobin (g/dL) 20 mg/kg compound” value read?
A: 16.1 g/dL

Q: `C[C@H](NC(=O)c1c(O)c2ccccc2n(OCC2CC2)c1=O)C(=O)O` [Example 45, (S)-2-(1-(cyclopropylmethoxy)-4-hydroxy-2-oxo-1,2-dihydroquinoline-3-carboxamido)propanoic acid] was tested. Which “Hemoglobin (g/dL) 20 mg/kg compound” value did it give?
A: 15.7 g/dL

Q: `O=C(O)CNC(=O)c1c(O)c2cncnc2n(OCc2c(F)cccc2F)c1=O` [Example 46, 2-(8-((2,6-difluorobenzyl)oxy)-5-hydroxy-7-oxo-7,8-dihydropyrido[2,3-d]pyrimidine-6-carboxamido)acetic acid] was tested. Which “Hemoglobin (g/dL) 20 mg/kg compound” value did it give?
A: 14.2 g/dL

Q: For `O=C(N[C@H](C(=O)O)c1ccccc1)c1c(O)c2ccccc2n(OCC2CC2)c1=O` [Example 47, (S)-2-(1-(cyclopropylmethoxy)-4-hydroxy-2-oxo-1,2-dihydroquinoline-3-carboxamido)-2-phenylacetic acid], which “Hemoglobin (g/dL) 20 mg/kg compound” value is on record?
A: 14.2 g/dL

Q: How did the “Hemoglobin (g/dL) 20 mg/kg compound” value turn out when `C=CCOn1c(=O)c(C(=O)NCC(=O)O)c(O)c2ccc(N3CCOCC3)cc21` [Example 48, 2-(1-(allyloxy)-4-hydroxy-7-morpholino-2-oxo-1,2-dihydroquinoline-3-carboxamido)acetic acid] was run?
A: 13.9 g/dL

Q: With `CC(C)(C)OC(=O)CNC(=O)c1c(O)c2ccccc2n(OCC2CC2)c1=O` [Example 49, tert-butyl-2-(1-(cyclopropylmethoxy)-4-hydroxy-2-oxo-1,2-dihydroquinoline-3-carboxamido)acetate] as the compound, how does the “Hemoglobin (g/dL) 20 mg/kg compound” value read?
A: 14.1 g/dL

Q: How did the “Hemoglobin (g/dL) 20 mg/kg compound” value turn out when `COC(=O)CNC(=O)c1c(O)c2ccccc2n(OCC2CC2)c1=O` [Example 53, methyl-2-(1-(cyclopropylmethoxy)-4-hydroxy-2-oxo-1,2-dihydroquinoline-3-carboxamido)acetate] was run?
A: 15.2 g/dL

Q: How did the “Hemoglobin (g/dL) 20 mg/kg compound” value turn out when `CC(C)C[C@H](NC(=O)c1c(O)c2ccccc2n(OCC2CC2)c1=O)C(=O)O` [Example 54, (S)-2-(1-(cyclopropylmethoxy)-4-hydroxy-2-oxo-1,2-dihydroquinoline-3-carboxamido)-4-methylpentanoic acid] was run?
A: 13.7 g/dL

Q: `CC(C)[C@H](NC(=O)c1c(O)c2ccccc2n(OCC2CC2)c1=O)C(=O)O` [Example 55, (S)-2-(1-(cyclopropylmethoxy)-4-hydroxy-2-oxo-1,2-dihydroquinoline-3-carboxamido)-3-methylbutanoic acid] was tested. Which “Hemoglobin (g/dL) 20 mg/kg compound” value did it give?
A: 13 g/dL

Q: Which “Hemoglobin (g/dL) 20 mg/kg compound” value does the source give for `O=C(O)CCNC(=O)c1c(O)c2ccccc2n(OCC2CC2)c1=O` [Example 56, 3-(1-(cyclopropylmethoxy)-4-hydroxy-2-oxo-1,2-dihydroquinoline-3-carboxamido)propanoic acid] here?
A: 14.4 g/dL

Q: `O=C(N[C@@H](Cc1ccccc1)C(=O)O)c1c(O)c2ccccc2n(OCC2CC2)c1=O` [Example 58, (S)-2-(1-(cyclopropylmethoxy)-4-hydroxy-2-oxo-1,2-dihydroquinoline-3-carboxamido)-3-phenylpropanoic acid] was tested. Which “Hemoglobin (g/dL) 20 mg/kg compound” value did it give?
A: 14 g/dL

Q: For `O=C(O)CNC(=O)c1c(O)c2ccccc2n(OCC(F)(F)F)c1=O` [Example 69, 2-(4-hydroxy-2-oxo-1-(2,2,2-trifluoroethoxy)-1,2-dihydroquinoline-3-carboxamido)acetic acid], which “Hemoglobin (g/dL) 20 mg/kg compound” value is on record?
A: 15.7 g/dL

Q: For `O=C(O)CNC(=O)c1c(O)c2ccncc2n(OCC2CC2)c1=O` [Example 70, 2-(1-(cyclopropylmethoxy)-4-hydroxy-2-oxo-1,2-dihydro-1,7-naphthyridine-3-carboxamido)acetic acid], which “Hemoglobin (g/dL) 20 mg/kg compound” value is on record?
A: 13.9 g/dL

Q: `CCCOn1c(=O)c(C(=O)N[C@@H](C)C(=O)O)c(O)c2ccccc21` [Example 73, (S)-2-(4-hydroxy-2-oxo-1-propoxy-1,2-dihydroquinoline-3-carboxamido)propanoic acid] was tested. Which “Hemoglobin (g/dL) 20 mg/kg compound” value did it give?
A: 16.2 g/dL

Q: Which “Hemoglobin (g/dL) 20 mg/kg compound” value does the source give for `O=C(O)CNC(=O)c1c(O)c2ccccc2n(OCC/C=C/C2CC2)c1=O` [Example 76, 2-(1-((4-cyclopropylbut-3-en-1-yl)oxy)-4-hydroxy-2-oxo-1,2-dihydroquinoline-3-carboxamido)acetic acid] here?
A: 17.1 g/dL

Q: How did the “Hemoglobin (g/dL) 20 mg/kg compound” value turn out when `CCCC(CCC)On1c(=O)c(C(=O)NCC(=O)O)c(O)c2ccccc21` [Example 77, 2-(1-(heptan-4-yloxy)-4-hydroxy-2-oxo-1,2-dihydroquinoline-3-carboxamido)acetic acid] was run?
A: 15.5 g/dL

Q: For `O=C(O)CNC(=O)c1c(O)c2sccc2n(OCC2CC2)c1=O` [Example 79, 2-(4-(cyclopropylmethoxy)-7-hydroxy-5-oxo-4,5-dihydrothieno[3,2-b]pyridine-6-carboxamido)acetic acid], which “Hemoglobin (g/dL) 20 mg/kg compound” value is on record?
A: 14.3 g/dL
